The values that follow come from BindingDB's records for doi:10.1016/j.bmcl.2021.127861 (Neuropore Therapies, 2021).

As usually defined, the IC50 is the point on the concentration scale where inhibition reaches its midpoint.

This test has as its target Tumor necrosis factor (Homo sapiens, UniProt P01375). Briefly: Inhibition of TNFalpha (unknown origin) in HEK-Blue-hTLR2 cells assessed as inhibition of TNFalpha-induced NFkappaB activation pretreated for 2 hrs followed by incubation with TNFalpha for 18 hrs by SEAP assay.

Chain of Tumor necrosis factor (P01375 whole entry): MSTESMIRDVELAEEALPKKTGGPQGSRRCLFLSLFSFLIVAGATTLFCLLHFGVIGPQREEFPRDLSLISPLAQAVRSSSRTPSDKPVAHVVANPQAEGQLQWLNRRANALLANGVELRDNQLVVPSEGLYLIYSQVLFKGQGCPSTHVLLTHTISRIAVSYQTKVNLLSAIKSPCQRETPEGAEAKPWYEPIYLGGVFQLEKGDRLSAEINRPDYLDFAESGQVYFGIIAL

Consider `CCCCCCCCCCCCCCOCC(CNC(=O)[C@H]1CCCN1)OCCCCCCCCCCCCCC` (some centres not stated), for which the half-inhibitory concentration (IC50) is greater than 30 µM.

With `CCCCCCCCCCCCCCOCC(CNC(=O)[C@@H](CCCCN)NC(=O)OCc1ccccc1)OCCCCCCCCCCCCCC` (some centres not stated), the IC50 was greater than 30 µM.

For `CCCCCCCCCCCCCCOCC(CNC(=O)[C@H](CCCCN)NCc1ccc(-c2ccccc2)cc1)OCCCCCCCCCCCCCC` (some centres not stated), the half-maximal inhibitory concentration (IC50) was greater than 30 µM.

`CCCCCCCCCCCCCCOCC(CNC(=O)c1cccc(C2CCNCC2)c1)OCCCCCCCCCCCCCC` (configuration not stated): the IC50 is greater than 30 µM.

In the case of `CCCCCCCCCCCCCCOCC(CNC(=O)CC[C@H](NC(=O)OCC1c2ccccc2-c2ccccc21)C(=O)O)OCCCCCCCCCCCCCC` (some centres not stated), the IC50 is greater than 30 µM.

For the molecule `CCCCCCCCCCCCCCOCC(CNC(=O)[C@H]1CC[C@H](N)CC1)OCCCCCCCCCCCCCC` (some centres not stated), the IC50 is greater than 30 µM.

As for `CCCCCCCCCCCCCCOCC(CNC(=O)[C@@H](CCCCN)NCc1ccccc1)OCCCCCCCCCCCCCC` (some centres not stated), the IC50 is greater than 30 µM.

On to `CCCCCCCCCCCCCCOCC(CNC(=O)c1cccc(N2CCNCC2)c1)OCCCCCCCCCCCCCC` (configuration not stated), for which the IC50 was greater than 30 µM.

In the case of `CCCCCCCCCCCCCCOCC(CNC(=O)[C@H](CCCCN)NCc1ccc(F)cc1)OCCCCCCCCCCCCCC` (some centres not stated), the IC50 is greater than 30 µM.

With `CCCCCCCCCCCCCCOCC(CNC(=O)[C@H](CCCCN)NC(C)=O)OCCCCCCCCCCCCCC` (some centres not stated), the IC50 is greater than 30 µM.

Regarding `CCCCCCCCCCCCCCOCC(CNC(=O)[C@@H](N)CCCCN)OCCCCCCCCCCCCCC` (some centres not stated), the IC50 was greater than 30 µM.

`CCCCCCCCCCCCCCOCC(CNC(=O)[C@H](CCCCN)NCc1ccccc1)OCCCCCCCCCCCCCC` (some centres not stated): the half-maximal inhibitory concentration (IC50) was greater than 30 µM.

Consider `CCCCCCCCCCCCCCOCC(CNC(=O)CCCCCN)OCCCCCCCCCCCCCC` (configuration not stated), for which the IC50 is greater than 30 µM.

As to `CCCCCCCCCCCCCCOCC(CNC(=O)[C@H](CCCCN)NC(=O)OCC1c2ccccc2-c2ccccc21)OCCCCCCCCCCCCCC` (some centres not stated), the IC50 is greater than 30 µM.

As for `CCCCCCCCCCCCCCOCC(CNC(=O)C1(NC(=O)OCc2ccccc2)CCNCC1)OCCCCCCCCCCCCCC` (configuration not stated), the IC50 is greater than 30 µM.

Consider `CCCCCCCCCCCCCCOCC(CNC(=O)C(CC1CCNCC1)NC(=O)OCC1c2ccccc2-c2ccccc21)OCCCCCCCCCCCCCC` (configuration not stated), for which the IC50 was greater than 30 µM.

In the case of `CCCCCCCCCCCCCCOCC(CNC(=O)CCN)OCCCCCCCCCCCCCC` (configuration not stated), the IC50 is greater than 30 µM.
